{
  "source": "patent US20150148387A1",
  "about": "“METHODS OF TREATMENT, DIAGNOSIS AND […] METHA[…] WHICH TARGET CERAMIDE METABOLIC […] AND […] SENESCENCE” (priority 2012, published 2015)",
  "key": {"[1]": {"system": "primary mouse embryonic fibroblasts (MEF)", "type": "cell-based", "conditions": "for SA-β-gal expression induced by methamphetamine: methamphetamine 1 mM; for amphetamine-induced inflammation and senescence: measured by beta-galactosidase assay, crystal violet morphology, and gene expression of pro-inflammatory and pro-senescence genes", "method": "Detection of senescence-associated β-galactosidase staining was performed as previously reported. Briefly, we plated MEFs on Lab-Tek chamber slides at a density of 5×10^4 cells per chamber. Next day, cells were treated with the indicated dose of drug for 48 hours. Cells were washed twice with PBS and fixed in 2% formaldehyde/0.2% glutaraldehyde for five minutes at room temperature. After two PBS washes the slides were incubated with fresh β-galactosidase stain solution (1 mg/mL 5-bromo-4-chloro-3-indoyl β-D-galactoside (X-Gal) 40 mM sodium phosphate, pH 6.0, 5 mM potassium ferrocyanide, 5 mM potassium ferricyanide, 150 mM NaCl, and 2 mM MgCl2) at 37° C. for 12-16 hours. Slides were washed with PBS and mounted with DAPI containing media. Images were taken for the β-gal staining and overlapped with fluorescent images taken of the same region to count the number of cells staining positive for β-gal (Nikon Eclipse E600). More than 200 cells from 5 different regions of a slide were counted in a blind fashion."}, "[2]": {"system": "primary mouse embryonic fibroblasts (MEF)", "type": "cell-based", "conditions": "for ceramide (d18:1/16:0) content: incubation of MEF with the drug alone", "method": "(§1) Cells were washed with ice-cold phosphate-buffered saline (PBS) and scraped into 0.5 ml of methanol/water (1:1, vol:vol) containing the internal standards listed below. Protein concentrations were measured using the BCA protein assay (Pierce, Rockford, Ill., USA). Lipids were extracted with chloroform/methanol (2:1, vol:vol; 1.0 mL). The organic phases were collected, dried under nitrogen and dissolved in methanol for LC/MS analyses.\n(§2) Helium was used as collision gas. […] Mobile phase composition was as described above.\n(§3) Mouse embryonic fibroblasts (MEFs) were prepared from mice embryo as previously reported. Briefly, pregnant mice at day 13 post coitum were sacrificed and the uteri were dissected out. Each embryo was separated from the placenta and the head and visceral tissues were removed. The remaining body was minced in PBS and incubated with 0.1 mM trypsin/1 mM EDTA at 37° C. for 15 min. Two volumes of Dulbecco's Modified Eagle Medium (DMEM) containing 10% fetal bovine serum (FBS) was added and stood for 5 minutes to settle down large pieces of unbroken tissues. The supernatant was then removed and centrifuged at 200×g for 5 min and suspended in fresh DMEM containing 10% FBS. Cells were cultured at 37° C. with 5% CO2."}, "[3]": {"system": "primary mouse embryonic fibroblasts (MEF)", "assay": "Gene expression in MEF", "type": "cell-based", "conditions": "MEF; co-administration with methamphetamine", "method": "Total RNA was extracted from frozen tissues using TRIzol reagent (Invitrogen, Carlsbad, Calif.) and was purified with the RNeasy mini kit (Qiagen, Valencia, Calif.). First-strand complementary DNAs were synthesized using SuperScript II RNaseH reverse transcriptase (Invitrogen). Reverse transcription of total RNA (2 μg) was carried out using oligo(dT)12-18 primers for 50 min at 42° C. mRNA levels were measured by quantitative real-time polymerase chain reaction (RT-PCR) with a Mx 3000P system (Stratagene, La Jolla, Calif.). The following list of primers and fluorogenic probes purchased from Applied Biosystems (TaqMan Gene Expression Assays, Foster City, Calif.): Ceramide Synthase 1 (Rn01420081_m1), Ceramide Synthase 2 (Rn01762789_m1), Ceramide Synthase 4 (Rn01767402_m1), Ceramide Synthase 5 (Rn01532864_m1), Ceramide Synthase 6 (Rn01270930_m1), Interleukin-6 (Rn01410330_m1). mRNA levels were normalized using beta actin, 18S ribosomal protein or glyceraldehyde-3-phosphate dehydrogenase as internal standards. Additional PCR primers were designed using Primer 3 (https://www.Frodo.wit.mit.edu), and the sequences are shown in S.Table XXX.\nas §3"}, "[4]": {"system": "ceramide content and IL-6 and p21 mRNA", "assay": "Acute experiment in mice: methamphetamine alone or in combination with L-CS", "conditions": "methamphetamine in combination with L-CS"}, "[5]": {"system": "de novo ceramide biosynthesis", "assay": "Methamphetamine self-administration in rats: lipidomic analysis of tissues by LC/MS", "conditions": "8 days self-administration; L-CS i.v. from 4 days into the study (10 then 20 mg/kg before and after sessions)", "protocol": "Male Sprague-Dawley rats (Charles River, Wilmington, Mass.), weighing approximately 360-440 g at the beginning of the self-administration experiment, were individually housed in a temperature- and humidity-controlled environment under a reversed lighting 12-h light/dark cycle (lights on at 7:00 p.m.). The rats were allowed free access to food (NIH07 biscuits) in their home cage throughout the study. Water was available ad libitum in the home cage and in the testing chamber. Rats were tested in the light phase. They were experimentally and drug naïve at the beginning of this study.\nEach of eighteen standard operant-conditioning chambers (Coulbourn Instruments, Lehigh Valley, Pa.) contained a white house light and two holes with nose-poke operanda on either side of a food trough. Upon activation, each nose poke produced a brief feedback tone. […] The tubing was attached to a syringe pump (Harvard Apparatus, South Natick, Mass.), which was programmed to deliver 2-s injections. The injected volume was adjusted for every animal to deliver a methamphetamine dose of 0.1 mg/kg/injection. Experimental events were controlled by microcomputers using MED Associates interfaces and software (Med Associates Inc., East Fairfield, Vt.).\nSilastic catheter was implanted into the external jugular vein under anesthesia with a mixture of ketamine and xylazine (60 and 10 mg/kg i.p., respectively). Catheter exited the skin behind the ear. After catheter implantation, a nylon bolt glued to an acrylic mesh was implanted subcutaneously in the midscapular region. The nylon bolt served as a tether, preventing the catheter from being pulled out during self-administration sessions. Following surgery, the IV catheter was flushed daily during the first week with 0.2-0.3 ml of solution containing cephalosporin (100 mg/ml; Cefazolin For Injection, USP; Hospira Inc., Lake Forest, Ill., USA) and then flushed before and after each daily session with saline to maintain its patency) and then flushed after each daily session with saline to maintain its patency.\nEach experimental group was divided into two subgroups that were tested simultaneously. One subgroup served as yoked controls and passively received an injection of saline (which was not contingent on responding) each time a response-contingent injection of 0.1 mg/kg methamphetamine was actively self-administered by the first subgroup of rats. […] The first experimental groups consisted of 12 rats self-administering methamphetamine and 6 yoked control rats. The second experimental group consisted of 9 rats self-administering methamphetamine and 9 yoked control rats. The third experimental group consisted of 16 rats self-administering methamphetamine and 8 yoked control rats. […] The pretreatment with L-CS was always given immediately before and after each session and the catheter was flushed with 0.5 ml of saline afterwards. Before and after sessions 4 and 5 animals received dose 10 mg/kg of L-CS and before and after sessions 6, 7, and 8 they received dose 20 mg/kg of L-CS. The animals received total dose 160 mg/kg of L-CS during the experiment.\nEight consecutive 15-hour sessions were conducted between 4 p.m. and 8 a.m. Rats and the food in the feeders were weighed before the start of each session. At the start of each session, a white house light was turned on and a priming injection of 0.1 mg/kg methamphetamine (or saline for yoked group), sufficient to fill the “dead” space of the IV catheter, was automatically delivered. Rats learned to self-administer methamphetamine under one-response, fixed ratio schedule (FRI) of i.v. methamphetamine injection with 30-s time-out duration."}, "[6]": {"assay": "Methamphetamine self-administration in rats: self-administration, body weight, body temperature, food intake", "type": "in vivo, rat", "protocol": "Each experimental group was divided into two subgroups that were tested simultaneously. One subgroup served as yoked controls and passively received an injection of saline (which was not contingent on responding) each time a response-contingent injection of 0.1 mg/kg methamphetamine was actively self-administered by the first subgroup of rats. […] The first experimental groups consisted of 12 rats self-administering methamphetamine and 6 yoked control rats. The second experimental group consisted of 9 rats self-administering methamphetamine and 9 yoked control rats. The third experimental group consisted of 16 rats self-administering methamphetamine and 8 yoked control rats. […] The pretreatment with L-CS was always given immediately before and after each session and the catheter was flushed with 0.5 ml of saline afterwards. Before and after sessions 4 and 5 animals received dose 10 mg/kg of L-CS and before and after sessions 6, 7, and 8 they received dose 20 mg/kg of L-CS. The animals received total dose 160 mg/kg of L-CS during the experiment. In this group, we also measured three times the rectal temperature. The first measurement was done one the day before the experiment began at 2 pm, the second measurement was done at 2 pm before the eighth session, and the third measurement immediately after the eighth session.\nEight consecutive 15-hour sessions were conducted between 4 p.m. and 8 a.m. Rats and the food in the feeders were weighed before the start of each session. At the start of each session, a white house light was turned on and a priming injection of 0.1 mg/kg methamphetamine (or saline for yoked group), sufficient to fill the “dead” space of the IV catheter, was automatically delivered. Rats learned to self-administer methamphetamine under one-response, fixed ratio schedule (FRI) of i.v. methamphetamine injection with 30-s time-out duration. Each nose-poke response in the active hole (FRI) produced a delivery of an i.v. injection of 0.1 mg/kg of methamphetamine followed by 30-s timeout period, during which the chamber was dark and responses in either hole had no programmed consequences."}, "[7]": {"system": "isolated mitochondria from primary MEF", "assay": "Lipid analysis of isolated mitochondria from MEF", "type": "cell-based, mouse", "conditions": "isolated mitochondria from primary MEF; inhibitor 30 μM", "method": "as §1, §2, §3"}, "[8]": {"system": "primary mouse embryonic fibroblasts (MEF)", "assay": "ROS production in MEF (CM-H2DCFDA)", "type": "cell-based", "conditions": "CYP inhibitors with methamphetamine", "method": "Production of ROS was measured using the fluorescent probe CM-H2DCFDA (Invitrogen). This carboxy derivative of fluorescein carries additional negative charges that improve its retention compared to noncarboxylated forms. For these experiments, MEFs were grown in DMEM without phenol red, for which anti-oxidative properties have been reported. Cells were plated to subconfluence in 12-well plates, washed 3 times with pre-warmed PBS and loaded for 30 min at 37° C./5% CO2 with […] CM-H2DCFDA in DMEM without phenol red (loading medium). Then the loading medium was removed and pre-warmed fresh medium containing the different CYP450 inhibitors in presence or absence of methamphetamine was added. Fluorescence (excitation at 485 nm, emission at 530 nm) was analyzed immediately, cells were incubated at 37° C./5% CO2, and fluorescence was analyzed at the indicated time points. ROS rate versus control (%) was calculated subtracting the percentage of ROS increasing from time zero in the methamphetamine-treated samples to the percentage of ROS increasing from time zero in vehicle-treated samples."}},
  "note": "Entries after “also recorded” stand apart in the source; their conditions may differ. Like-named read-outs stand apart in the source and are kept apart here.",
  "data": [
    {"compound": "CCCC[C@@H](C)[C@@H](OC(=O)C[C@@H](CC(=O)O)C(=O)O)[C@H](C[C@@H](C)C[C@H](O)CCCC[C@@H](O)C[C@H](O)[C@H](C)N)OC(=O)C[C@@H](CC(=O)O)C(=O)O", "note": "[Fumonisin B1]", "values": [
      {"measurement": "expression of SA-β-gal by the cell-permeable ceramide analog C8", "setting": "[1]; C8 in presence of L-CS or FB1", "result": "neither L-CS nor FB1 blocked"},
      {"measurement": "SA-β-gal expression induced by methamphetamine", "setting": "[1]; inhibitor 50 μM", "result": "suppressed"}
    ]},
    {"compound": "CCCCc1ccc(N=CNO)c(C)c1", "note": "[HET-0016]", "values": [
      {"measurement": "ceramide formation in D-meth-treated cells", "setting": "[2]; MEF, inhibitors each at 10 μM", "result": "ineffective"}
    ]},
    {"compound": "N[C@H]1CONC1=O", "note": "[L-cycloserine]", "values": [
      {"measurement": "methamphetamine induced increases in ceramide", "setting": "[2]; primary MEF, inhibitor 30 μM", "result": "able to block"},
      {"measurement": "methamphetamine-induced increase in the transcription of IL-6, TNF-alpha, p21 and p53", "setting": "[3]", "result": "blocked"},
      {"measurement": "methamphetamine-induced increase of ceramide", "setting": "[4]", "result": "block the increase"},
      {"measurement": "expression of SA-β-gal by the cell-permeable ceramide analog C8", "setting": "[1]", "result": "neither L-CS nor FB1 blocked"},
      {"measurement": "amphetamine-induced inflammation and senescence", "setting": "[1]", "result": "prevent"},
      {"measurement": "SA-β-gal expression induced by methamphetamine", "setting": "[1]; inhibitor 30 μM", "result": "suppressed"},
      {"measurement": "methamphetamine induced increases in ceramide content", "setting": "[5]", "result": "blocked"},
      {"measurement": "methamphetamine-induced reduction of food intake", "setting": "[6]; L-CS treatment", "result": "did not alter"},
      {"measurement": "meth induced changes in body temperature", "setting": "[6]; L-CS treatment, listed as L-CS", "result": "did not alter"},
      {"measurement": "methamphetamine self-administration", "setting": "[6]; L-CS treatment, listed as L-CS", "result": "no effect; also recorded: did not alter"},
      {"measurement": "body weight (wasting phenotype)", "setting": "[6]; methamphetamine self-administering animals treated with L-CS, listed as L-CS", "result": "able to rescue the wasting phenotype; also recorded: corrected the abnormalities in body weight"},
      {"measurement": "methamphetamine induced increases in ceramide", "setting": "[7]", "result": "able to block"}
    ]},
    {"compound": "CN[C@@H](C)Cc1ccccc1.Cl", "note": "[L-methamphetamine, L-methamphetamine hydrochloride]", "values": [
      {"measurement": "ceramide (d18:1/16:0) content", "setting": "[2]", "result": "no such effect"}
    ]},
    {"compound": "CCCC(C(=O)OCCN(CC)CC)(c1ccccc1)c1ccccc1", "note": "[SKF-525A]", "values": [
      {"measurement": "release of ROS evoked by methamphetamine", "setting": "[8]", "result": "prevented"},
      {"measurement": "ceramide formation in D-meth-treated cells", "setting": "[2]; MEF, inhibitors each at 10 μM", "result": "normalized"}
    ]},
    {"compound": "CN/C(=N/CCSCc1nc[nH]c1C)NC#N", "note": "[cimetidine]", "values": [
      {"measurement": "release of ROS evoked by methamphetamine", "setting": "[8]", "result": "prevented"},
      {"measurement": "ceramide formation in D-meth-treated cells", "setting": "[2]", "result": "normalized"}
    ]},
    {"compound": "C[C@H](N)Cc1ccccc1", "note": "[d-amphetamine]", "values": [
      {"measurement": "ceramide (d18:1/16:0) content", "setting": "[2]", "result": "modest but statistically significant (p<0.014) increase"}
    ]},
    {"compound": "C=C[C@H]1C[N@@]2CC[C@H]1C[C@@H]2[C@@H](O)c1ccnc2ccc(OC)cc12", "note": "[quinidine]", "values": [
      {"measurement": "release of ROS evoked by methamphetamine", "setting": "[8]", "result": "prevented"},
      {"measurement": "ceramide formation in D-meth-treated cells", "setting": "[2]; MEF, inhibitors each at 10 μM", "result": "normalized"}
    ]},
    {"compound": "O=C1CCC(N2C(=O)c3ccccc3C2=O)C(=O)N1", "note": "(stereo not shown) [thalidomide]", "values": [
      {"measurement": "amphetamine-induced inflammation and senescence", "setting": "[1]", "result": "prevent"}
    ]},
    {"compound": "TNF-α", "values": [
      {"measurement": "cellular ceramide content", "setting": "[2]; MEF, TNF-α treatment activating NF-κB", "result": "mimic the effects of methamphetamine"}
    ]}
  ]
}
